Experimental data: ChEMBL document CHEMBL1201862, “PubChem BioAssay data set” (2004)
“And” between values parts separate entries of the source, which are not always exact repeats. Equal values may be shown once. Values belong to the compound of their own block, whether it stands above or below them. The source made the active and inactive calls.

Legend:
[1] = molecular target: T1, Corticotropin-releasing factor receptor 2/Corticotropin-releasing factor-binding protein (Homo sapiens, UniProt P24387+Q13324); experiment: Dose Response confirmation of uHTS hits for small molecule antagonists of the CRF-binding protein and CRF-R2 receptor complex.; assay type: functional; details: read-out: IC50_Mean
T1 sequence (Q13324 whole entry): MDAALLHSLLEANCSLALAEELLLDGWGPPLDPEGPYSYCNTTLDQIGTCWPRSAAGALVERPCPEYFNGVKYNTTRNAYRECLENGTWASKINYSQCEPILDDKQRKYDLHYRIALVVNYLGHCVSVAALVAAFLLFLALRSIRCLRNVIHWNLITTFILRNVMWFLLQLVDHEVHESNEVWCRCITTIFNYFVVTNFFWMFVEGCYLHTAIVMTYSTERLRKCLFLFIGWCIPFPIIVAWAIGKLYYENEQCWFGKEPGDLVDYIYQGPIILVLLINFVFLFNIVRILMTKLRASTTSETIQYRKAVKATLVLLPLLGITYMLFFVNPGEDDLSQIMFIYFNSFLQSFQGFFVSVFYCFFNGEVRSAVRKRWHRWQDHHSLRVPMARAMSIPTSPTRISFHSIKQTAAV
T1 sequence (P24387 whole entry): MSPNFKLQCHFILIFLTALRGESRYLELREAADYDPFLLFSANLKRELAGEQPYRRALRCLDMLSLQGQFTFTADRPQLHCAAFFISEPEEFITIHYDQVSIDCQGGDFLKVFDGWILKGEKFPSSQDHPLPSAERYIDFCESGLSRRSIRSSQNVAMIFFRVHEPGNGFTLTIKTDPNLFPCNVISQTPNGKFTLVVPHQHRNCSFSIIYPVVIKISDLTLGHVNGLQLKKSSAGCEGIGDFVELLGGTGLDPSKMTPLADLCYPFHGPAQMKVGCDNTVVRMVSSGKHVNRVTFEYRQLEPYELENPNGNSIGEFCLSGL

[2] = molecular target: T1, Corticotropin-releasing factor receptor 2/Corticotropin-releasing factor-binding protein; experiment: activators of CRF receptor 2 with binding protein – uHTS hits, confirmation (AID 602473); assay type: functional; details: read-out: EC50_Mean
[3] = molecular target: T2, Cytochrome P450 1A2 (Homo sapiens, UniProt P05177);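 further: PubChem cytochrome P450 panel assay, CYP1A2 panel member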
T2 sequence (P05177 whole entry): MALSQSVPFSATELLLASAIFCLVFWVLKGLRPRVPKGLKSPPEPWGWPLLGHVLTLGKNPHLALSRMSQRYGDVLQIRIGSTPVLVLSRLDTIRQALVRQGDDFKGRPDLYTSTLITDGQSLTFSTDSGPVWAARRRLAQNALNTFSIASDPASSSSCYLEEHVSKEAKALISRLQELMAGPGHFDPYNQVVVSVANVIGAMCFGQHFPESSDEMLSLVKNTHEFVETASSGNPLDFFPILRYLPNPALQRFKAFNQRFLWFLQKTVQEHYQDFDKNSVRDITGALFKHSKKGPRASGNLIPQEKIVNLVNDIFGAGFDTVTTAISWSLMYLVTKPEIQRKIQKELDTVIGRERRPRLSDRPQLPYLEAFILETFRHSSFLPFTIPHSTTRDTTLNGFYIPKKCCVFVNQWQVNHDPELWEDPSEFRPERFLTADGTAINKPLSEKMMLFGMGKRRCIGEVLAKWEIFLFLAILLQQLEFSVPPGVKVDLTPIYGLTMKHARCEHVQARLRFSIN

[4] = molecular target: T3, Heat shock factor protein 1 (Mus musculus, UniProt P38532); experiment: enhancement of HSF1-driven luciferase signal – cell-based, NIH3T3, luminescence, dose retest, confirmation (AID 435004); assay type: functional;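 further: stress induced by proteasome inhibitor MG132 added 30 min after compound; luciferase reporter driven by HSF1 response element in NIH3T3 cells; actives raise luminescence as potentiators of the MG132 stress response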
T3 sequence (P38532 whole entry): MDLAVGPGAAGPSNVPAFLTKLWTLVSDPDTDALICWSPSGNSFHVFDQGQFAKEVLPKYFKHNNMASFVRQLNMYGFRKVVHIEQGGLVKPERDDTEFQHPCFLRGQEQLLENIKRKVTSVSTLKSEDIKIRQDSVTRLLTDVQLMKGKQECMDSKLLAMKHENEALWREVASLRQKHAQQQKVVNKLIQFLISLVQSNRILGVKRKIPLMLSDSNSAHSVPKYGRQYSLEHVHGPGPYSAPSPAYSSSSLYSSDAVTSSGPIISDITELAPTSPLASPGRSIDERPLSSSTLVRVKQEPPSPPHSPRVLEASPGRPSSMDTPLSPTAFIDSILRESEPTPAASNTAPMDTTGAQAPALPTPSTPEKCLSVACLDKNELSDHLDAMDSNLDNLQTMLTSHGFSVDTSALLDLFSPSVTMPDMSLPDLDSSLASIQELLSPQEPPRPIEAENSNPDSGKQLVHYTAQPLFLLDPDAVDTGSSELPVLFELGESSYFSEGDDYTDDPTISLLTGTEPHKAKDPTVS

[5] = viability of uninfected HEp-2 cells – cell-based, HTS, cytotoxicity control for RSV inhibitor project, dose response (AID 2410); assay type: functional; details: human respiratory syncytial virus
[6] = molecular target: Cytochrome P450 2C9 (Homo sapiens, UniProt P11712)
[7] = molecular target: Cytochrome P450 2C19 (Homo sapiens, UniProt P33261); experiment: Cytochrome panel assay with activity outcomes. Panel member name: p450-cyp2c19 Compounds with AC50 equal or less than 10 uM are considered active; assay type: functional; details: read-out: AC50
[8] = molecular target: Cytochrome P450 3A4 (Homo sapiens, UniProt P08684);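 further: CYP3A4 tested as one member of a cytochrome P450 panel screen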
[9] = molecular target: Paired box protein Pax-8 (Homo sapiens, UniProt Q06710); experiment: PAX8 transcriptional activity inhibition in RMG-I – RMG-I cells, luciferase, cherry-pick, dose response (AID 687027); assay type: functional, cell-based;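 further: luciferase reporter driven by Pax8 target thyroperoxidase promoter measured by SteadyGlo luminescence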
Sequence of Paired box protein Pax-8 (Q06710 whole entry): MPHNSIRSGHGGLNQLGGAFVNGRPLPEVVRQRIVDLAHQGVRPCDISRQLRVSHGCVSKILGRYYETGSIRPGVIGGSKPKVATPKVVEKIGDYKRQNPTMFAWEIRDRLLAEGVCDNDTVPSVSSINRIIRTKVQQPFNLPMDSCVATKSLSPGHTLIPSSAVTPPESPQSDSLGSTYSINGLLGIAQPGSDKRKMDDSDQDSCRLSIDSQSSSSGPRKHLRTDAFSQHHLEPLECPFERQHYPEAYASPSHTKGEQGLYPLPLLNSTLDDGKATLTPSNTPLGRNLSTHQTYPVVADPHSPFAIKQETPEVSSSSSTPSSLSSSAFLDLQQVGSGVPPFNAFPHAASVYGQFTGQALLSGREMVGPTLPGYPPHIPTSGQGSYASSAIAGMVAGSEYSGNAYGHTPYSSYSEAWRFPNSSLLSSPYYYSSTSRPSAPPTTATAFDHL

Sequence of Cytochrome P450 2C9 (P11712 whole entry): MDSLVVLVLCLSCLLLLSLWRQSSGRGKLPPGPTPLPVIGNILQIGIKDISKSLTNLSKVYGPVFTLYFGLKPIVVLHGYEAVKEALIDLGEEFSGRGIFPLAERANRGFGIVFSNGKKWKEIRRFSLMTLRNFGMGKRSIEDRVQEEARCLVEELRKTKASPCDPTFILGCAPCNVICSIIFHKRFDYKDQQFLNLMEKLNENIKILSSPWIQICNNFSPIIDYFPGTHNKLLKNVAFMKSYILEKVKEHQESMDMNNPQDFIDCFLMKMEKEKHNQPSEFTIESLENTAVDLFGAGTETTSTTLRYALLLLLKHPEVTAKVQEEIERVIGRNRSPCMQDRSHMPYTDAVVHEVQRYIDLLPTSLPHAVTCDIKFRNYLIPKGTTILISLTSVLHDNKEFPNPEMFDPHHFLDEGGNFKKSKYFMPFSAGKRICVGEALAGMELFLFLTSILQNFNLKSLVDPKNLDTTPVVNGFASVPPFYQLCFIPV
Sequence of Cytochrome P450 2C19 (P33261 whole entry): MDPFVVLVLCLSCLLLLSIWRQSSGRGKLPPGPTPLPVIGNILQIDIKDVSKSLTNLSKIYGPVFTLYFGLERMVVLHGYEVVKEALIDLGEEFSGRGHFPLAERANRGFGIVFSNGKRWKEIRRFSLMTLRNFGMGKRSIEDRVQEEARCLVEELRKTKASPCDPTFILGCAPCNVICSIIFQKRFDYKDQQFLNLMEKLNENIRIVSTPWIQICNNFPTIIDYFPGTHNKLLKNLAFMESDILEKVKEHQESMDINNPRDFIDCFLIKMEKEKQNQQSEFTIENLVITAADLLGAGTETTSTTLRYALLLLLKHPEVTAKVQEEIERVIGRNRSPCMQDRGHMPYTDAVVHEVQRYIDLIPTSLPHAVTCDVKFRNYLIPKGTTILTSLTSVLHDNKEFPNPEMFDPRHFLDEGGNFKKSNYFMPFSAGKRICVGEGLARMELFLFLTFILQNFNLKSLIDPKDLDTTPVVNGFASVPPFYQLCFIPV
Sequence of Cytochrome P450 3A4 (P08684 whole entry): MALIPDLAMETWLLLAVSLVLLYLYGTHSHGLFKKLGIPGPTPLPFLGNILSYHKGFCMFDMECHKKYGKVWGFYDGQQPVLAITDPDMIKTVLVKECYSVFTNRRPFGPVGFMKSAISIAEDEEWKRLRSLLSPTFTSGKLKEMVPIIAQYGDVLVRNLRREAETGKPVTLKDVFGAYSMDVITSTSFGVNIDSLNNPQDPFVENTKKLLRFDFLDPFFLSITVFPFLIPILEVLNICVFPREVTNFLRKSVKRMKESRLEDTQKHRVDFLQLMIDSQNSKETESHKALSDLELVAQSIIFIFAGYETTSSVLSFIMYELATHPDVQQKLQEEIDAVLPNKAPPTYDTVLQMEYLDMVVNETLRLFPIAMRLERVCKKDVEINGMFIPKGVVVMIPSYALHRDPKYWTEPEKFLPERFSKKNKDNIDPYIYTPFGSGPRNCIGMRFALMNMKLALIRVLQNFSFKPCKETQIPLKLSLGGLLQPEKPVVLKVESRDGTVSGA

SMILES: CCOC(=O)COc1cc(OCC(=O)OCC)c2c(=O)cc(-c3ccccc3)oc2c1
- AC50 [3]: 15.8 µM (inconclusive)

SMILES: O=[N+]([O-])c1ccc(NC(S)=NC(=NCS(=O)(=O)c2ccccc2)c2ccccc2)cc1
- CC50 [5]: 11.1 µM (active)

SMILES: Cc1ccc([N+](=O)[O-])cc1NC(=O)CN(C)CCOc1ccccc1
- CC50 [5]: 24.3 µM (active)

SMILES: CC[C@H](C(=O)c1cccs1)C(O)(C(F)(F)F)C(F)(F)F
- AC50 [6]: 7.94 µM (inconclusive)
- AC50 [7]: 2 µM (inconclusive)

SMILES: Cn1c(=O)c(CCc2ccccc2)nc2cnc(Nc3ccccc3)nc21
- AC50 [6]: 10 µM (inconclusive)
- AC50 [8]: 12.6 µM (inconclusive)
- AC50 [3]: 1.26 µM (inconclusive)

SMILES: COc1ccc2nc(-c3ccccc3)cc(OC)c2c1
- CC50 [5]: > 50 µM (active)

SMILES: CCOC(=O)c1c(C)[nH]c(C)c1S(=O)(=O)N1CCN(c2ccc(F)cc2)CC1
- EC50 [4]: > 260 µM (inactive)

SMILES: Oc1ccc(C[C@H]2CNC(=S)N2CC2CCCN2C[C@H](Cc2ccc(O)cc2)N2C[C@H](Cc3ccccc3)N(CC3CCCCCC3)C2=S)cc1 (stereo partly specified)
- AC50 [9]: 9.86 µM (active)

SMILES: COc1ccc(NS(=O)(=O)c2cccc(C(=O)N(C)Cc3ccc(SC)cc3)c2)cc1
- EC50 [4]: > 260 µM (inactive)

SMILES: OC[C@@H](O)C1OC2N=C(S)OC2C1O (stereo partly specified)
- EC50 [4]: > 260 µM (inactive)

SMILES: COC(=O)C(NC(=O)c1ccc(Cl)cc1)(Nc1nc(C)cs1)C(F)(F)F (stereo unspecified)
- AC50 [3]: 28.2 µM (inconclusive)

SMILES: COc1cc(-c2cnc3c(NC=O)cc(-c4ccccc4)cn23)cc(OC)c1OC
- AC50 [9]: 2.79 µM (active)

SMILES: Cc1ccc(S(=O)(=O)Nc2ccc3c(c2)C(=O)N([C@@H](C)CO)C[C@@H](C)[C@@H](CN(C)S(=O)(=O)c2ccc(Cl)cc2)OCCCC[C@@H](C)O3)cc1
- AC50 [9]: 10.4 µM (active)

SMILES: Nc1cc(OC(=O)c2ccco2)nn1S(=O)(=O)c1ccc(F)cc1
- IC50 [1]: 34.8 µM (active)
- EC50 [2]: > 53 µM (inactive)

SMILES: CC(C)(C)c1ccc(C(=O)Nc2ccc(S(N)(=O)=O)cc2)cc1
- CC50 [5]: 20.1 µM (active)

SMILES: N#Cc1nc(NCC(F)F)nc(Nc2cc(F)cc(F)c2)n1
- AC50 [9]: 5.01 µM (active)

SMILES: N=C(N)NC(=O)c1nc(Cl)c(N)nc1N [AMILORIDE]
- AC50 [3]: 39.8 µM (inconclusive) and 12.6 µM (inconclusive)

Results, then the compound that gave them:

- IC50 [1]: > 47.1 µM (inactive)
- EC50 [2]: > 53 µM (inactive)
SMILES: CN(C)c1c([N+](=O)[O-])ncn1C

- EC50 [4]: 12 µM (active)
SMILES: Clc1ccc(OCCn2c(-c3ccco3)nc3ccccc32)cc1

- EC50 [4]: > 260 µM (inactive)
SMILES: Cc1cc(C)cc(OCC(=O)O/N=C(\N)Cc2ccc([N+](=O)[O-])cc2)c1

- AC50 [6]: 5.01 µM (inconclusive)
- AC50 [3]: 15.8 µM (inconclusive)
SMILES: Cc1ccc(CS(=O)(=O)CCC(=O)NCc2cccs2)cc1

- IC50 [1]: > 47.1 µM (inactive)
- EC50 [2]: > 53 µM (inactive)
SMILES: Cn1nc(N)c2ncc(C(Cl)(Cl)Cl)nc21

- EC50 [4]: > 260 µM (inactive)
SMILES: CCOC(=O)/C(=N/Nc1ccc(Cl)cc1)Sc1nnnn1-c1ccc(C)cc1

- IC50 [1]: > 47.1 µM (inactive)
- EC50 [2]: > 53 µM (inactive)
SMILES: COc1ccc(C2=NN(C)/C(=N\Cc3ccccc3)SC2)cc1

- AC50 [9]: 11.7 µM (active)
SMILES: C[C@H](CO)N1C[C@H](C)[C@H](CN(C)Cc2ccc(Cl)c(Cl)c2)OCCCC[C@H](C)Oc2ccc(NC(=O)NC3CCCCC3)cc2C1=O

- AC50 [6]: 1.12 µM (inconclusive)
- AC50 [3]: 25.1 µM (inconclusive)
- AC50 [7]: 5.01 µM (inconclusive)
SMILES: Cc1nn(-c2ccccc2)c(-c2ccccc2)c1C(=O)O
